In patent publication US9744122B2, “Topical formulation for pain relief” (priority 2013, dated 2017):

Tests used:
[1] = testing of topical pain relief; type: in vivo
Text: A new route of administration for mannitol for the specific indication of pain is disclosed. The topical composition allows for transdermal delivery of mannitol. […] The ingredients, including mannitol, are typically classified as natural health products.
(§1) Therefore, an improved topical composition includes from 0.25% up to 20.0% of menthol, by weight.

TRPV1 receptor = TRPV1 receptor (Homo sapiens, UniProt Q8NER1); assay: inventors' own studies on mechanism of topical pain relief; conditions: distinct from osmotic effects
Text: The TRPV1 receptor is present on sensory nerves in the skin and is implicated in neurogenic inflammation, acute pain and chronic pain.

[2] = absorption of mannitol through skin; conditions: when menthol is included in the composition
Text: as §1

Chain of TRPV1 receptor (Q8NER1 whole entry): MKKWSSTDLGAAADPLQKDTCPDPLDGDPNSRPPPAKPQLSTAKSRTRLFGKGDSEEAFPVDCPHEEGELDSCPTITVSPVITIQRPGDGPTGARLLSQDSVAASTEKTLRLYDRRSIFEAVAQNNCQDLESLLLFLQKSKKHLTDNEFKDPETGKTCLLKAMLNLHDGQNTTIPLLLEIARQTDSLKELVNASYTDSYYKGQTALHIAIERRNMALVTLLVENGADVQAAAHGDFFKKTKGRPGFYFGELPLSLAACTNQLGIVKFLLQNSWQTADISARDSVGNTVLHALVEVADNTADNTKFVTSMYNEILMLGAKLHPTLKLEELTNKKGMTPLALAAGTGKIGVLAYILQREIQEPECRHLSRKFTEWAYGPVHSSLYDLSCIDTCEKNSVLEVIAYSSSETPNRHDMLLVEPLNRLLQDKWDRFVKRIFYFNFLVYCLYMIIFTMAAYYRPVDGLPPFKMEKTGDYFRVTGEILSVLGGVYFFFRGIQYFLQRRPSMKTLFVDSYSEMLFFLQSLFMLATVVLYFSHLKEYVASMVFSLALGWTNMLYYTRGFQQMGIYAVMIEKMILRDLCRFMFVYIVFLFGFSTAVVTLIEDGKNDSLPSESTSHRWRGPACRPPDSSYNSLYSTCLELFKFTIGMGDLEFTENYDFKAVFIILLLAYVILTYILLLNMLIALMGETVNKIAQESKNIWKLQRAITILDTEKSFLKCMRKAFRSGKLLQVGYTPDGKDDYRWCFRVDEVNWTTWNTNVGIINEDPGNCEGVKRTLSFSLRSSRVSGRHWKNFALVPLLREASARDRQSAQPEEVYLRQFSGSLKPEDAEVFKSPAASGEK

| effect on TRPV1 receptor (TRPV1 receptor) | absorption through skin [2] | Compound | effectiveness of menthol content in the topical composition ([1]; 1.25% menthol by weight) | pain relief ([1]; when menthol is included in the composition) |
| --- | --- | --- | --- | --- |
|  |  | CC1CCC(C(C)C)C(O)C1 (stereo not shown) [menthol] | effective |  |
| down-regulation | much more effectively absorbed | OC[C@@H](O)[C@@H](O)[C@H](O)[C@H](O)CO [mannitol] |  | improved pain relief |
